Laboratory results reported in PubChem BioAssay AID743394 (Broad Institute, 2014).
The source made the active and inactive calls.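 How the source made its calls: active means 40% activation versus positive control reached by fitted dose-response curve at or below highest valid tested dose; inconclusive means poor fit quality, or flat fit with activation between 30% and 70%; inactive means the rest.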

Test: Xi-linked GFP reactivating small molecules – imaging, 68-5-11 mouse fibroblasts, cherry-pick, dose response (AID 743394);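 further: sensitizer 5-aza-dC present in the wells at 0.5 mM final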
Details: 68-5-11 mouse fibroblast XiGFP reporter, % GFP-positive imaging, 3 d; at 19.5 µM (top of the series)
For Cc1ccc2[nH]c(=S)n(-c3cccnc3)c(=O)c2c1, the activation was -0.035% (inactive).
For COC(=O)Cn1cc(/C=C2\C(=O)NC(=O)N(c3ccc(OC)cc3)C2=O)c2ccccc21, the activation was 0.09% (inactive).
In the case of C[n+]1c(-c2ccccc2)c2cc(N)ccc2c2ccc(N)cc21, the activation is reported as 1.19% (inactive).

Same assay, conditions: 68-5-11 mouse fibroblast XiGFP reporter, % GFP-positive imaging, 3 d; at 19.5 µM (top of the series); cells co-treated with 5-aza-dC sensitizer; scaled: neutral wells 0, ellipticine wells 100
For NC(=S)Nc1ccc(Cl)cc1Cl, the activation was -0.001% (inactive).
For O=C(CC1CC1)N1CC(=O)N2[C@@H](CO)[C@H](c3ccc(C#Cc4ccc(F)cc4)cc3)[C@@H]2C1, the activation was -0.031% (inactive).
For CC(C)N1C(=O)C(=O)N(CC(=O)N2CCc3ccccc32)C1=O, the activation was -0.031% (inactive).
For COC(=O)c1ccc(NC(=O)c2nc(S(=O)(=O)Cc3cccc(C)c3)ncc2Cl)cc1, the activation was -0.008% (inactive).
For COc1cccc(-c2ccc(C3[C@@H]4CN(C(=O)C5CCCCC5)C[C@H]3N4)cc2)c1 (stereo partly drawn), the activation was 2.76% (inactive).
With COc1cccc(CNC(=O)c2cc(S(=O)(=O)N3CCCC3)cn2C)c1 the activation was 0.095% (inactive).
In the case of CC1CCCC(NC(=O)CSc2cccc[n+]2[O-])C1C (stereo not drawn), the activation is reported as 0.125% (inactive).
For CCOc1cccc(/C=N/NC(=S)Nc2cc(S(=O)(=O)N3CCOCC3)ccc2N2CCOCC2)c1O, the activation was 6.09% (inactive).
With C=Cc1cnc([N+](=O)[O-])n1C the activation was -0.018% (inactive).
With CC(C)NC(=O)N(C)C[C@@H]1OCCCC[C@H](C)Oc2ccc(NC(=O)Nc3ccc(C(F)(F)F)cc3)cc2C(=O)N([C@H](C)CO)C[C@@H]1C the activation was 0.005% (inactive).
In the case of O=C(N/N=C/c1ccc(Br)s1)c1ccc([N+](=O)[O-])cc1, the activation is reported as 1.59% (inactive).
In the case of CC(C)(C)NC(=O)C(c1c[nH]c2ccccc12)N(C(=O)Cn1nnc(-c2ccc(Cl)cc2)n1)c1ccccc1F (stereo not drawn), the activation is reported as 0.104% (inactive).
With CCCCCC[n+]1ccccc1/C=C/c1ccc(N(C)C)cc1 the activation was 6.32% (inactive).
In the case of C[C@@H]1CN([C@@H](C)CO)C(=O)c2ccccc2-c2ccccc2CO[C@@H]1CN(C)C(=O)Nc1ccc2c(c1)OCO2, the activation is reported as 0.081% (inactive).
For Cc1ccc(S(=O)(=O)N(C)C[C@H]2OCCCC[C@@H](C)Oc3ccc(NC(=O)Nc4c(C)noc4C)cc3C(=O)N([C@H](C)CO)C[C@@H]2C)cc1, the activation was -0.011% (inactive).
For CN(Cc1cccs1)C(=O)Cc1c[nH]c2ccccc12, the activation was -0.024% (inactive).
For CCOC(=O)C1=c2/c(=C/c3ccncc3)c(N)c(C(=O)OC)n2C(=O)C(c2ccncc2)S1 (stereo not drawn), the activation was 0.188% (inactive).
In the case of Cc1nn(-c2ccccc2)c(N)c1N=O, the activation is reported as -0.053% (inactive).
With C[C@@H]1CN([C@@H](C)CO)C(=O)c2cc(NS(C)(=O)=O)ccc2O[C@@H](C)CCCCO[C@@H]1CN(C)Cc1ccccc1 the activation was 0.016% (inactive).
In the case of COc1ccc(C(=O)N/N=C/c2cc(Br)ccc2O)cc1OC, the activation is reported as -0.037% (inactive).
For CC1=Nc2ccccc2/C1=C\c1sc(Nc2ccc(C)cc2)nc1O, the activation was 0.535% (inactive).
With Cc1nn(-c2ccccc2)c(C)c1N the activation was 0.313% (inactive).
With Oc1c(C(c2ccccc2Cl)N2CCCC2)ccc2cccnc12 (stereo not drawn) the activation was -0.035% (inactive).
In the case of Cc1ncsc1C(=O)Nc1cccc(C(F)(F)F)c1, the activation is reported as -0.075% (inactive).
In the case of O=C1CCCC(O)=C1Sc1cc(Cl)c(Cl)cc1Cl, the activation is reported as 0.118% (inactive).
With COc1ccc2c3c([nH]c2c1)[C@H](CO)N(C(=O)Nc1ccc(F)cc1)CC31CN(CC2CC2)C1 the activation was -0.035% (inactive).
For C[C@@H]1CN([C@@H](C)CO)S(=O)(=O)c2ccc(C#CC3CC3)cc2O[C@H]1CN(C)Cc1ccc(F)cc1, the activation was 0.063% (inactive).
For C=CCNC(=O)N[C@@H](Cc1ccccc1)C(=O)OC, the activation was -0.065% (inactive).
With CC(C)(C)[S@@](=O)N1Cc2cc(C(=O)N3CCCCC3)nc(-c3cccc(-c4cccc(C#N)c4)c3)c2[C@H]1CCO the activation was -0.031% (inactive).
With CCc1ccc(C(=O)NNc2ccc(S(N)(=O)=O)cc2)cc1 the activation was -0.007% (inactive).
With CC1CN(C(=O)/C=C/c2ccc([N+](=O)[O-])s2)CC(C)O1 (stereo not drawn) the activation was -0.075% (inactive).
With OC[C@@H]1Nc2ccc(C#Cc3ccccc3)cc2[C@H]2[C@@H]1CCN2Cc1nccs1 the activation was 0.161% (inactive).
With O=C1N[C@H](Cc2ccccc2)COCc2cn(nn2)CC[C@@H]1Cc1ccccc1 the activation was 0.033% (inactive).
For O=C1c2ccccc2C(=Cc2cccnc2)c2ccccc21, the activation was 0.325% (inactive).
For Cc1ccccc1-c1ccc(C2[C@@H]3CN(Cc4cocn4)C[C@H]2N3)cc1 (stereo partly drawn), the activation was -0.031% (inactive).
With Cc1ccc2c(COC(=O)C34CC5CC(CC(C5)C3)C4)cc(=O)oc2c1 the activation was -0.07% (inactive).
In the case of CCOC(=O)c1c(C)[nH]c(N=Nc2ccc(OC)cc2)c1C, the activation is reported as 1.01% (inactive).
With N/C(=N\c1nc(CSc2nc3ccccc3s2)cc(=O)[nH]1)Nc1ccc(F)cc1 the activation was 8.8% (inactive).
With O=[N+]([O-])/C=C/c1ccc2c(ccn2Cc2ccccc2)c1 the activation was -0.06% (inactive).
With CCOC(=O)c1ccc(NC(=O)c2ccnn2C)cc1 the activation was -0.044% (inactive).
With CNC(=O)C[C@H]1C(=O)N(c2ccccc2)C[C@@H]1C the activation was 0.464% (inactive).
In the case of CCN1CCN(c2cc3nc(C)n(Cc4ccccc4)c(=O)c3cc2NC(=O)c2ccccc2F)CC1, the activation is reported as -0.127% (inactive).
With COC(=O)c1sc(-c2ccc(C(C)(C)C)cc2)cc1NC(=O)c1ccccc1C(=O)O the activation was -0.053% (inactive).
With CCCCNc1nc2c(-c3ccccc3)nnn2c2ccccc12 the activation was 0.101% (inactive).
For Cc1ccc(C)c(CSC2=NN3CCCC(=O)N=C3S2)c1, the activation was -0.017% (inactive).
With C[C@H]1CCCCO[C@@H](CN(C)C(=O)Nc2ccc(C(F)(F)F)cc2)[C@@H](C)CN([C@@H](C)CO)C(=O)c2cc(NC(=O)CCC(F)(F)F)ccc2O1 the activation was 0.048% (inactive).
In the case of O=C(CCC(=O)Nc1cccnc1)Nc1cccnc1, the activation is reported as 0.049% (inactive).
With Oc1ccc(Br)cc1C=Nc1ccc2c3c(cccc13)CC2 the activation was 0.056% (inactive).
In the case of Oc1cccc(/C=N/NC(=S)NCCN2CCOCC2)c1O, the activation is reported as -0.016% (inactive).
In the case of CCOc1ccc(CCN2C(=S)N([C@@H](Cc3ccccc3)CN3CCC[C@@H]3CN3C(=S)NC[C@@H]3CC(C)C)C[C@@H]2Cc2ccccc2)cc1, the activation is reported as 0.011% (inactive).
With O=C(C[C@H]1CC[C@H]2[C@@H](COC[C@@H](O)CN2C(=O)Nc2ccccc2)O1)NCCc1ccncc1 the activation was 0.207% (inactive).
With CC(C)Oc1ccc(/C(O)=C2/C(=O)C(=O)N(CCN(C)C)C2c2cccs2)cc1 (stereo not drawn) the activation was 0.063% (inactive).
In the case of O=C(CCn1nc(-c2ccc(Cl)cc2)c2ccccc2c1=O)NN1CCOCC1, the activation is reported as -0.017% (inactive).
For CO[C@@H]1CN(C)C(=O)c2ccc(NC(=O)Nc3cccc(Cl)c3)cc2OC[C@H](C)N(C(=O)Nc2c(C)noc2C)C[C@H]1C, the activation was -0.002% (inactive).
In the case of CN(Cc1nc(CCc2ccccc2)no1)Cc1cccs1, the activation is reported as -0.037% (inactive).
With COc1cc(/C=N/Nc2nc(N3CCCC3)nc(N3CCCC3)n2)ccc1OCc1ccccc1F the activation was 0.149% (inactive).
In the case of CC1CCN(C(=O)Cn2nnc(-c3ccccc3)n2)CC1, the activation is reported as 0.315% (inactive).
With CC(=NNc1ccc2ccccc2n1)c1ccccn1 the activation was 1.93% (inactive).
In the case of CC(=O)Oc1ccc2c(=O)c(-c3ccccc3)coc2c1, the activation is reported as 0.086% (inactive).

Same assay, conditions: 68-5-11 mouse fibroblast XiGFP reporter, % GFP-positive imaging, 3 d; at 21 µM (top of the series); cells co-treated with 5-aza-dC sensitizer; scaled: neutral wells 0, ellipticine wells 100
With Cc1cccc(CN(C)C[C@@H]2Oc3ncc(C#Cc4ccccc4)cc3C(=O)N([C@H](C)CO)C[C@@H]2C)c1 the activation was -0.035% (inactive).
